Results as given in PubChem BioAssay AID330 (DTP/NCI, 2004).
Values joined by “and” are separate entries in the source; they are usually repeats but may differ in a detail not shown here. Equal entries are not always repeated. Inconclusive results and toxic doses are left out. Peptide text beside a SMILES is read from it. * marks the point of attachment. Cbz = O=C(OCc1ccccc1)*

Test system: P388 leukemia ip, CD2F1 mice, survival T/C
Experiment: NCI In Vivo Anticancer Drug Screen. Data for tumor model P388 Leukemia (intraperitoneal) in CD2F1 (CDF1) mice
Conditions: endpoint: median survival time, higher = longer survival
Summary of the method: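 Mice carrying the transplanted tumor received test compound or vehicle. Survival was recorded in each group, and the value is the treated-group measurement divided by that of the vehicle-treated control group.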

[1] = dose: 25.0 mg/kg/injection, schedule: Q01DX009 (ip), vehicle: other
[2] = dose: 50.0 mg/kg/injection, schedule: Q01DX009 (ip), vehicle: other
[3] = dose: 100.0 mg/kg/injection, schedule: Q01DX009 (ip), vehicle: other
[4] = dose: 200.0 mg/kg/injection, schedule: Q01DX009 (ip), vehicle: other
[5] = dose: 50.0 mg/kg/injection, schedule: Q01DX005 (ip), vehicle: Klucel (hydroxypropylcellulose) (HPC)
[6] = dose: 100.0 mg/kg/injection, schedule: Q01DX005 (ip), vehicle: Klucel (hydroxypropylcellulose) (HPC)
[7] = dose: 200.0 mg/kg/injection, schedule: Q01DX005 (ip), vehicle: Klucel (hydroxypropylcellulose) (HPC)
[8] = dose: 100.0 mg/kg/injection, schedule: Q01DX001 (ip), vehicle: saline with Tween-80
[9] = dose: 200.0 mg/kg/injection, schedule: Q01DX001 (ip), vehicle: saline with Tween-80
[10] = dose: 50.0 mg/kg/injection, schedule: Q01DX005 (ip), vehicle: saline with Tween-80
[11] = dose: 100.0 mg/kg/injection, schedule: Q01DX005 (ip), vehicle: saline with Tween-80
[12] = dose: 200.0 mg/kg/injection, schedule: Q01DX005 (ip), vehicle: saline with Tween-80
[13] = dose: 60.0 mg/kg/injection, schedule: Q01DX005 (ip), vehicle: saline with Tween-80
[14] = dose: 120.0 mg/kg/injection, schedule: Q01DX005 (ip), vehicle: saline with Tween-80
[15] = dose: 240.0 mg/kg/injection, schedule: Q01DX005 (ip), vehicle: saline with Tween-80
[16] = dose: 6.25 mg/kg/injection, schedule: Q01DX009 (ip), vehicle: saline with Tween-80
[17] = dose: 6.25 mg/kg/injection, schedule: Q01DX005 (ip), vehicle: saline with Tween-80
[18] = dose: 12.5 mg/kg/injection, schedule: Q01DX005 (ip), vehicle: saline with Tween-80
[19] = dose: 25.0 mg/kg/injection, schedule: Q01DX005 (ip), vehicle: saline with Tween-80

CCOC(=O)c1coc(N)n1
T/C (dose: 12.5 mg/kg/injection, schedule: Q01DX009 (ip), vehicle: other): 98 % of control | T/C [1]: 100 % of control | T/C [2]: 106 % of control | T/C [3]: 107 % of control | T/C [4]: 103 % of control

CC(C)(C)OC(=O)NC(Cc1ccc(O)cc1)C(=O)ON1C(=O)CCC1=O (stereo not drawn)
T/C [5]: 100 % of control | T/C [6]: 106 % of control | T/C [7]: 108 % of control

O=S(=O)(Nc1cccc(NS(=O)(=O)c2ccccc2)n1)c1ccccc1
T/C (dose: 50.0 mg/kg/injection, schedule: Q01DX001 (ip), vehicle: saline with Tween-80): 91 % of control | T/C [8]: 91 % of control | T/C [9]: 91 % of control

Nc1nc2[nH]c(=S)[nH]c2c(=O)[nH]1
T/C [10]: 92 % of control | T/C [11]: 92 % of control | T/C [12]: 95 % of control

COC(=O)c1ncn(C(C(=O)OC)C(=O)OC)c1O
T/C [13]: 104 % of control | T/C [14]: 100 % of control | T/C [15]: 113 % of control

CCCN1CCN(c2ccc([N+](=O)[O-])c3no[n+]([O-])c23)CC1
T/C (dose: 1.25 mg/kg/injection, schedule: Q01DX009 (ip), vehicle: saline): 98 % of control and 97 % of control | T/C (dose: 2.5 mg/kg/injection, schedule: Q01DX009 (ip), vehicle: saline): 100 % of control and 107 % of control | T/C (dose: 5.0 mg/kg/injection, schedule: Q01DX009 (ip), vehicle: saline): 100 % of control and 108 % of control | T/C (dose: 10.0 mg/kg/injection, schedule: Q01DX009 (ip), vehicle: saline): 110 % of control and 120 % of control

Cc1ccc(NC(=O)NCc2ccncc2)cc1NC(=O)NCc1ccncc1
T/C (dose: 50.0 mg/kg/injection, schedule: Q01DX009 (ip), vehicle: Klucel (hydroxypropylcellulose) (HPC)): 112 % of control | T/C (dose: 100.0 mg/kg/injection, schedule: Q01DX009 (ip), vehicle: Klucel (hydroxypropylcellulose) (HPC)): 110 % of control

CCOC(=O)c1ccc(NC(N)=O)cc1
T/C [1]: 101 % of control | T/C [2]: 102 % of control | T/C [3]: 98 % of control | T/C [4]: 98 % of control | T/C (dose: 400.0 mg/kg/injection, schedule: Q01DX009 (ip), vehicle: other): 93 % of control

COc1nc(N(CCO)c2ccccc2)nc(N(CCO)c2ccccc2)n1
T/C [10]: 96 % of control | T/C [11]: 93 % of control | T/C [12]: 92 % of control

NC1CNC(C(=O)O)=C(CC(=O)O)C1=O (stereo not drawn)
T/C (dose: 4.25 mg/kg/injection, schedule: Q01DX005 (ip), vehicle: sodium bicarbonate): 101 % of control | T/C (dose: 8.5 mg/kg/injection, schedule: Q01DX005 (ip), vehicle: sodium bicarbonate): 99 % of control | T/C (dose: 17.0 mg/kg/injection, schedule: Q01DX005 (ip), vehicle: sodium bicarbonate): 106 % of control | T/C (dose: 34.0 mg/kg/injection, schedule: Q01DX005 (ip), vehicle: sodium bicarbonate): 99 % of control

CN(Cc1cnc2nc(N)[nH]c(=O)c2c1)c1ccc(C(=O)NC(CCC(=O)O)C(=O)O)cc1 (stereo not drawn)
T/C [10]: 98 % of control | T/C [11]: 100 % of control | T/C [12]: 111 % of control

CSC1NN=C(CCC(=O)Nc2ccc(C)cc2)O1 (stereo not drawn)
T/C [13]: 108 % of control | T/C [14]: 92 % of control | T/C [15]: 102 % of control

CN(C)CCO
T/C (dose: 60.0 mg/kg/injection, schedule: Q01DX005 (ip), vehicle: saline): 104 % of control | T/C (dose: 120.0 mg/kg/injection, schedule: Q01DX005 (ip), vehicle: saline): 100 % of control | T/C (dose: 240.0 mg/kg/injection, schedule: Q01DX005 (ip), vehicle: saline): 118 % of control

CC(=O)NC(CSc1ccccc1)C(=O)O (stereo not drawn)
T/C [10]: 100 % of control | T/C [11]: 100 % of control | T/C [12]: 99 % of control

CCN1CC2c3cc(OC)c(OC)cc3CC(c3ccccc3)C2C1 (stereo not drawn)
T/C [16]: 120 % of control | T/C (dose: 12.5 mg/kg/injection, schedule: Q01DX009 (ip), vehicle: saline with Tween-80): 120 % of control | T/C (dose: 25.0 mg/kg/injection, schedule: Q01DX009 (ip), vehicle: saline with Tween-80): 100 % of control

OCCN1CCCN(CCCN2c3ccccc3Sc3ccc(C(F)(F)F)cc32)CC1
T/C [17]: 97 % of control | T/C [18]: 102 % of control | T/C [19]: 118 % of control

O=S(=O)(Nc1ccc(CCc2ccc(NS(=O)(=O)c3ccccc3)cc2)cc1)c1ccccc1
T/C [8]: 95 % of control | T/C [9]: 91 % of control | T/C (dose: 400.0 mg/kg/injection, schedule: Q01DX001 (ip), vehicle: saline with Tween-80): 91 % of control

COC(OC(CO)C(O)S(=O)(=O)O)C(O)S(=O)(=O)O (stereo not drawn)
T/C (dose: 6.25 mg/kg/injection, schedule: Q01DX009 (ip), vehicle: saline): 100 % of control | T/C (dose: 12.5 mg/kg/injection, schedule: Q01DX009 (ip), vehicle: saline): 105 % of control | T/C (dose: 25.0 mg/kg/injection, schedule: Q01DX009 (ip), vehicle: saline): 118 % of control | T/C (dose: 50.0 mg/kg/injection, schedule: Q01DX009 (ip), vehicle: saline): 173 % of control | T/C (dose: 100.0 mg/kg/injection, schedule: Q01DX009 (ip), vehicle: saline): 155 % of control | T/C (dose: 200.0 mg/kg/injection, schedule: Q01DX009 (ip), vehicle: saline): 157 % of control

CCN(CC)CCn1c2c(c3ccc(OC)cc31)CCN1CC3CC(OC(=O)c4cc(OC)c(OC)c(OC)c4)C(OC)C(C(=O)OC)C3CC21 (stereo not drawn)
T/C (dose: 25.0 mg/kg/injection, schedule: Q01DX005 (ip), vehicle: saline): 97 % of control | T/C (dose: 50.0 mg/kg/injection, schedule: Q01DX005 (ip), vehicle: saline): 96 % of control | T/C (dose: 100.0 mg/kg/injection, schedule: Q01DX005 (ip), vehicle: saline): 101 % of control | T/C (dose: 200.0 mg/kg/injection, schedule: Q01DX005 (ip), vehicle: saline): 106 % of control

COc1cc2c(c(OC)c1OC)-c1ccc(S(=O)(=O)Cc3ccccc3)c(=O)cc1C(NC(C)=O)CC2 (stereo not drawn)
T/C (dose: 0.78 mg/kg/injection, schedule: Q01DX009 (ip), vehicle: Klucel (hydroxypropylcellulose) (HPC)): 95 % of control | T/C (dose: 1.56 mg/kg/injection, schedule: Q01DX009 (ip), vehicle: Klucel (hydroxypropylcellulose) (HPC)): 105 % of control and 106 % of control and 117 % of control | T/C (dose: 3.12 mg/kg/injection, schedule: Q01DX009 (ip), vehicle: Klucel (hydroxypropylcellulose) (HPC)): 100 % of control and 107 % of control and 115 % of control | T/C (dose: 6.25 mg/kg/injection, schedule: Q01DX009 (ip), vehicle: Klucel (hydroxypropylcellulose) (HPC)): 104 % of control and 107 % of control and 96 % of control | T/C (dose: 12.5 mg/kg/injection, schedule: Q01DX009 (ip), vehicle: Klucel (hydroxypropylcellulose) (HPC)): 105 % of control and 109 % of control and 113 % of control | T/C (dose: 25.0 mg/kg/injection, schedule: Q01DX009 (ip), vehicle: Klucel (hydroxypropylcellulose) (HPC)): 98 % of control and 101 % of control and 88 % of control

N#Cc1c2c(c(=O)n3c1[nH]c1ccccc13)CCC2
T/C [13]: 100 % of control | T/C [14]: 93 % of control | T/C [15]: 94 % of control

CCOCc1nc(N)nc(N)c1-c1cccc(Cl)c1
T/C [13]: 100 % of control | T/C [14]: 102 % of control

CC(=O)c1c(N)n(C)c(=O)n(C)c1=O
T/C (dose: 1.56 mg/kg/injection, schedule: Q01DX009 (ip), vehicle: saline with Tween-80): 101 % of control | T/C (dose: 3.13 mg/kg/injection, schedule: Q01DX009 (ip), vehicle: saline with Tween-80): 100 % of control | T/C [16]: 100 % of control and 95 % of control

C=COC(=O)C(Cc1ccccc1)NC(=O)OCc1ccccc1 (stereo not drawn)
T/C [18]: 106 % of control | T/C [19]: 100 % of control | T/C [10]: 103 % of control | T/C [11]: 103 % of control | T/C [12]: 100 % of control

CC(C)CC(NC(=O)C(NC(=O)OCc1ccccc1)C(C)C)C(=O)O (stereo not drawn) (Cbz-Val-Leu-OH; configuration not given here)
T/C [10]: 92 % of control | T/C [11]: 106 % of control | T/C [12]: 111 % of control

CN1CCC2(CC1)OCCO2
T/C (dose: 25.0 mg/kg/injection, schedule: Q01DX005 (ip), vehicle: Klucel (hydroxypropylcellulose) (HPC)): 100 % of control | T/C [5]: 100 % of control | T/C [6]: 89 % of control | T/C [7]: 89 % of control

CN1CCC(O)(C(O)(c2ccccc2)c2ccccc2)CC1
T/C [13]: 96 % of control | T/C [14]: 100 % of control | T/C [15]: 103 % of control

N#CN(Cc1ccccc1)C(c1ccccc1)(c1ccccc1)c1ccccc1.[Cl][Sn]([c]1ccccc1)([c]1ccccc1)[c]1ccccc1
T/C (dose: 3.12 mg/kg/injection, schedule: Q01DX005 (ip), vehicle: saline with Tween-80): 91 % of control | T/C [17]: 98 % of control | T/C [18]: 91 % of control
